The text below walks through data of patent US6344457B1, “Amino acid derivatives inhibiting extracellular matrix metalloproteinase and TNF alpha release” (Chiesi Farmaceutici S.p.A., priority 1997, dated 2002).

Bounds are passed on as bounds.

For orientation: melting point means the temperature, or range, at which the solid turns liquid.

The target in data set [1] is T1, collagenase of the human monocytic stock U937 (Homo sapiens, UniProt P03956).
T1 construct: the collagenase of the human monocytic stock U937; endogenous in cells; host or cells: U937 human monocytic cell line
T1 sequence (P03956 100-469): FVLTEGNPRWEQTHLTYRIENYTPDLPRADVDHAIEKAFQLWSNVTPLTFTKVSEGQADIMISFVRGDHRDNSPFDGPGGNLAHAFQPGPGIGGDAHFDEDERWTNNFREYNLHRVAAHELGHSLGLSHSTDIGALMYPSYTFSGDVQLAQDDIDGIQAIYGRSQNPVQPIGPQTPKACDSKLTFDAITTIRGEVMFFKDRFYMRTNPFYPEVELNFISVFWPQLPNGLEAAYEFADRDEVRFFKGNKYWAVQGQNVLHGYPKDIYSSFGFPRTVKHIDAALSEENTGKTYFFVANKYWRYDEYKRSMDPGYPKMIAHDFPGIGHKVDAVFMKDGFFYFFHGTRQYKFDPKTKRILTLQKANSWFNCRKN
Description: Activity on collagenase. The conditions noted are these: radiomarked collagen, 27° C., 16 hours; read-out: C150 (nM) collagenase. Format: biochemical.

Data set [2] addresses 92 kDa gelatinase of human origin (Homo sapiens, UniProt P14780). In words: Activity on gelatinase, radiomarked gelatin. Format: biochemical. The note with it: test performed with radiomarked gelatin; read-out: C150 (nM) gelatinase 92 kDa*. The gist of the method: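 Inhibiting concentration (C150) derived from enzyme activity across inhibitor levels of 10^−7 to 10^−12 M. Read-out is soluble peptide released from radiolabelled gelatin by human 92 kDa gelatinase after 16 hours at 37° C.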

Data set [3] deals with T2, 72 kDa gelatinase of human origin (Homo sapiens, UniProt P08253).
T2 sequence (P08253 110-660): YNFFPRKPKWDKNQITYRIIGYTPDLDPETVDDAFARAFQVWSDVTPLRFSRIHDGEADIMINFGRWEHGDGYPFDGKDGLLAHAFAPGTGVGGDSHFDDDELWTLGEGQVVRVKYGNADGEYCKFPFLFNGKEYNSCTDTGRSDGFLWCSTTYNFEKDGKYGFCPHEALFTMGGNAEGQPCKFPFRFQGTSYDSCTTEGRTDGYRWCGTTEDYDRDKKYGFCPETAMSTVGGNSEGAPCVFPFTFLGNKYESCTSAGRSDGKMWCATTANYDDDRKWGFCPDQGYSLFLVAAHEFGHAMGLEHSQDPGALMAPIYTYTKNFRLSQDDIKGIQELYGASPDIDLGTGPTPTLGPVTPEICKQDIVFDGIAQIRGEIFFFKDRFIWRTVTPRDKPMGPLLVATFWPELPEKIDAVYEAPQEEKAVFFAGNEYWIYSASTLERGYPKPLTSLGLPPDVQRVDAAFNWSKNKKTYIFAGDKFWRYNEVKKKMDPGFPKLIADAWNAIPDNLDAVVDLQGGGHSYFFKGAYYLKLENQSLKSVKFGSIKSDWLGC
Description: Activity on gelatinase, synthetic substrate. The note with it: performed on synthetic substrate; read-out: C150 (nM) gelatinase 72 kDa**. Format: biochemical. The procedure: The anti-gelatinase activity of the compounds according to the invention was determined on 72 kDa gelatinase of human origin, in accordance with the operating mode described by Knight, C. G., Willenbrock, F., Murphy, G. (FEBS Letters, 296 (3), 263-266, 1992).
The gelatinase was incubated at 37° C. for 10 minutes, and its activity was determined by the increase in fluorescence of the product of Mca-Pro-Leu breakdown of the Mca-Pro-Leu-Gly-Leu-Dpa-Ala-Arg-NH2 synthetic substrate.
The inhibiting concentration C150 for each compound was determined by measurement of the activity of the enzyme in the presence of the inhibitor at a concentration ranging between 10^−7 and 10^−12 M (the inhibitor is dissolved at a concentration of 10^−2 M in DMSO, then diluted successively by tenths in DMSO to 10^−4 M, then in the buffer: Tris, HCl 50 mM+0.05% Brij 35; CaCl2 10 mM; NaCl 0.15 M).

The target in data set [4] is stromelysine of human origin (Homo sapiens, UniProt P08254). Description: Activity on stromelysine. The note with it: radiomarked transferrin, 37° C., 16 hours; read-out: C150 (nM) stromelysine. Format: biochemical. The procedure:
The stromelysine was incubated at 37° C. for 16 hours with radiomarked transferrin, and its activity was determined by the release of the soluble peptides produced by the enzymatic breakdown of the transferrin. The inhibiting concentration C150 for each compound was determined by measurement of the activity of the enzyme in the presence of the inhibitor at a concentration ranging between 10^−7 and 10^−12 M (the inhibitor is dissolved in the same manner as for collagenase).

Data set [5] has as its system release of TNF from the peritoneal macrophages of mice stimulated by LPS. In words: Inhibition of the production of TNF in vitro. In kind it is cell-based. The note with it: Peritoneal macrophage; mouse peritoneal macrophages, LPS 100 ng/ml; read-out: C150 (μM) TNF.
The test system of data set [6] is metalloproteinase (MMP). The note with it: Bioorg. Med. Chem. Letters (1996), 6, 1719-1724; cited from earlier work.
Data set [7] has as its system femoral head cartilage of the rat implanted subcutaneously in mice. In words: Inhibition of the breakdown of cartilage in vivo. The note with it: 10 mg/kg i.p. twice a day, 21 days. The method, then:
The activities of the compounds of example 1 and example 10 comparatively to the compound BB16 were determined in a model of breakdown of cartilage in accordance with the operating mode described by Bottomley, K. M. K., Griffith, S. R. J., Rising, T. G., Steward, A. (Brit. J. Pharmacol. 21, 287-289, 1988). Femoral head cartilage of the rat, wrapped in sterile cotton, is implanted subcutaneously on the backs of mice. After 21 days, the mice are euthanized, the cartilages recovered and weighed. The animals are treated each day, twice a day, with one 10-mg/kg dose i.p.

Data set [8] relates to metalloproteinase (MMP). The note with it: J. Am. Chem. Soc. (1995), 117, 4671-4682; cited from earlier work.
Data set [9] relates to female Balb/c mice (D-galactosamine + LPS shock). Description: Inhibition of septic shock. In kind it is in vivo. The note with it: i.p. 30 minutes prior to induction of the shock; survival over 48 hours. The procedure: Septic shock is induced in female Balb/c mice in accordance with the procedure described by Mohler, K. M. et al. (Nature, 370, 218-220, 1994). Briefly, the shock is induced by i.p. injection of 20 mg of D-galactosamine and i.v. injection of 20 ng of LPS. The survival of the animals is evaluated for the following 48 hours.
The products to be tested are injected i.p. 30 minutes prior to induction of the shock. The compounds according to the invention protect from shock from 10 to 50 mg/kg. For instance, the compound of example 10 protects at 50 mg/kg.

Chain of stromelysine of human origin (P08254 100-477): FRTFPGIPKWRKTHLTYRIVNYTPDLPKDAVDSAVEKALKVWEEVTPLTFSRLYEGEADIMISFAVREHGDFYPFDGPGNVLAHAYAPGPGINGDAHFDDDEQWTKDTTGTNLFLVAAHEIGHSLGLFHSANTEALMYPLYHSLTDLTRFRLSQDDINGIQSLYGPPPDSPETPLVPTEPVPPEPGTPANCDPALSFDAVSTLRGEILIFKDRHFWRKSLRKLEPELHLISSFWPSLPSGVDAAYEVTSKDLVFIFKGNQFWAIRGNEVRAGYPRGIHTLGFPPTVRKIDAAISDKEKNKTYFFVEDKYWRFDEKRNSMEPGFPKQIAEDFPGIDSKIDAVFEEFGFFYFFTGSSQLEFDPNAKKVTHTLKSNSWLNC
Chain of 92 kDa gelatinase of human origin (P14780 94-707): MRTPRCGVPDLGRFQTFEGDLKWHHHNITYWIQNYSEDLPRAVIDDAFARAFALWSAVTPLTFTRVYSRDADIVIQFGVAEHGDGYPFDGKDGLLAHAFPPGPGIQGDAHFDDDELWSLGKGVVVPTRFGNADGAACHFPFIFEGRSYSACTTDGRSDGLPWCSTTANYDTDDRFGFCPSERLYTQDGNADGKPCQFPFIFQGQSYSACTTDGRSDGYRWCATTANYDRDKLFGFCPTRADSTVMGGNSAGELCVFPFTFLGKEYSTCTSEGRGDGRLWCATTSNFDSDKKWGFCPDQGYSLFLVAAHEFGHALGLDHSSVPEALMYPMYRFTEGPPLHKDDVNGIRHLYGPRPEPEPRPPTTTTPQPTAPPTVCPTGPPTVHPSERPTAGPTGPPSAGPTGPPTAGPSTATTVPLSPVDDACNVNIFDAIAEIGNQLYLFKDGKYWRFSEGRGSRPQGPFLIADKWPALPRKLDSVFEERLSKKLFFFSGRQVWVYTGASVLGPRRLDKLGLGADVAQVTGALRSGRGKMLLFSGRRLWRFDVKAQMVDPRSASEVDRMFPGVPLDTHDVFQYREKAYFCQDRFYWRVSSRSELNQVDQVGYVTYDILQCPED

In the case of `CNC(=O)[C@H](Cc1ccc(Cl)c(Cl)c1)NC(=O)[C@](O)(CC(C)C)[C@H](C)C(=O)NO` [Example 18, N-2(S)[1(S)hydroxycarbamoyl-1 ethyl]-2 (S) hydroxy 4-methylpentanoyl L-3,4-dichlorophenylalanine N-methylamide], the melting point is 216 °C (dec.). In addition, in data set [1], the IC50 is 2 nM. Also, the IC50 in data set [2] came to 0.002 nM. Besides, in [3], the IC50 was 0.4 nM. Further, in data set [4], the IC50 amounted to 6 nM. In [5], the IC50 was at most 0.14 µM.
Take `CNC(=O)[C@H](Cc1ccc(OC)cc1)NC(=O)C(C)(CC(=O)NO)c1ccccc1` (stereo partly drawn) [VIII]: the “activity on gem disubstitution, versus compound VII” value in the data set with metalloproteinase (MMP) [6] is given as “significant loss of activity”.
As for `CNC(=O)[C@H](Cc1ccc(OC)cc1)NC(=O)[C@](O)(CC(C)C)[C@H](C)C(=O)NO` [Example 1], the IC50 came to 5 nM in data set [1]; 1 nM in [2]; 1 nM in data set [3]; 15 nM in data set [4]; 1 µM in data set [5]. For the same compound, the “inhibition of weight loss of the cartilage” value in [7] turned out to be 42%.
On to `CNC(=O)[C@H](Cc1ccc(OC)cc1)NC(=O)C1(CC(=O)NO)CCc2ccccc21` (stereo partly drawn) [IX], for which the “activity on gem disubstitution, versus compound VII” value in the data set on metalloproteinase (MMP) [6] is recorded as “significant loss of activity”.
With `CNC(=O)[C@H](Cc1ccccc1)NC(=O)[C@](O)(CC(C)C)[C@H](C)C(=O)NO` [Example 4, N-2(S)[1(S)(hydroxycarbamoyl)ethyl] 2(S) hydroxy4-methyl pentanoyl L-phenyl alanine N-methylamide], the melting point was 174.2 °C (dec.). In addition, the IC50 in [1] was determined as 36 nM. Besides, the IC50 in [2] amounted to 10 nM. In addition, the IC50 in data set [3] stood at 1.6 nM. In data set [4], the IC50 came out at 29 nM.
With `CNC(=O)[C@H](Cc1c[nH]c2ccccc12)NC(=O)[C@@](C)(CC(=O)NO)CC(C)C` [compound VI], the “loss of activity (factor) on substitution of the hydrogen with a methyl, compound V versus compound VI” value with metalloproteinase (MMP) [8] is 300.
Regarding `CNC(=O)[C@H](Cc1ccc(Br)cc1)NC(=O)[C@](O)(CC(C)C)[C@H](C)C(=O)NO` [Example 11, N-2(S)[-1(S)(hydroxycarbamoyl)-1 ethyl]-2(S) hydroxy 4-methyl pentanoyl L-4-bromophenylalanine N-methylamide], the melting point was 214 °C (dec.). Moreover, the IC50 in [1] stood at 10 nM. Further, the IC50 in data set [2] came out at 2 nM. The IC50 in [3] came out at 2 nM. In addition, the IC50 in data set [4] is 37 nM. In addition, in data set [5], the IC50 came to 0.61 µM.
As for `CNC(=O)[C@H](Cc1ccc(Cl)cc1)NC(=O)[C@](O)(CC(C)C)[C@H](C)C(=O)NO` [Example 10, N-2(S) [-1(S) (hydroxycarbamoyl)-1 ethyl]-2(S) hydroxy-4-methyl pentanoyl L4-chlorophenylalanine N-methylamide], the IC50 came out at 4 nM in data set [1]; 2 nM in data set [2]; 1 nM in data set [3]; 48 nM in data set [4]; 0.4 µM in data set [5]. Besides, the “inhibition of weight loss of the cartilage” value in data set [7] is listed as 65%. Further, the “dose that protects from septic shock” value in data set [9] amounted to 50 mg/kg.
